Source: patent publication US20250263370A1 (Tay Therapeutics Limited, priority 2022, published 2025)
“And” between values parts separate entries of the source, which are not always exact repeats. Equal values may be shown once. “Also recorded” adds a separate entry of the source.

System: collagen-induced arthritis
Test: Collagen-induced arthritis (CIA) model in rats: body weight, paw volume, clinical scores, clinical observations; as to Average detailed clinical score, left hind limb: key of the grades not given here; as to Average detailed clinical score, right hind limb: key of the grades not given here; as to Mean overall clinical score ± SD: key of the grades not given here; as to overall clinical score: key of the grades not given here
Details: for Mean animal paw volume ± SD: group mean; for Average detailed clinical score, left forelimb / Average detailed clinical score, left hind limb / Average detailed clinical score, right forelimb / Average detailed clinical score, right hind limb / Average detailed clinical score, score / Mean overall clinical score ± SD / Overall clinical score: Day 0; for Overall clinical score: individual animals #1-8

CNC(=O)c1[nH]c(C(=O)NC2CCC2)cc1O[C@@H](C)c1ccccc1 (stereo in doubt) [Example 101, N^5-cyclobutyl-N^2-methyl-3-(1-phenylethoxy)-1H-pyrrole-2,5-dicarboxamide]
Animal paw volume Day 0 L (CIA rats, 30 mg/kg, Day 0, left paw, individual animals): 1.33 mL (2×) and 1.32 mL (3×) and 1.31 mL and 1.30 mL and 1.34 mL
Average animal paw volume percent change (CIA rats, 30 mg/kg, Day 0, right hind paw (R)): 0.00%
Animal paw volume Day 0 R (CIA rats, 30 mg/kg, Day 0, right paw, individual animals): 1.34 mL (2×) and 1.31 mL (2×) and 1.33 mL and 1.30 mL and 1.32 mL (2×)
Average animal paw volume percent change (CIA rats, 30 mg/kg, Day 6, left hind paw (L)): 0.76%
Animal paw volume Day 6 L (CIA rats, 30 mg/kg, Day 6, left paw, individual animals): 1.35 mL and 1.33 mL (3×) and 1.32 mL (3×) and 1.34 mL
Average animal paw volume percent change (CIA rats, 30 mg/kg, Day 6, right hind paw (R)): 0.75%
Animal paw volume Day 6 R (CIA rats, 30 mg/kg, Day 6, right paw, individual animals): 1.36 mL and 1.32 mL (2×) and 1.31 mL and 1.34 mL (2×) and 1.33 mL (2×)
Average animal paw volume percent change (CIA rats, 30 mg/kg, Day 12, left hind paw (L)): 1.33%
Animal paw volume Day 12 L (CIA rats, 30 mg/kg, Day 12, left paw, individual animals): 1.36 mL (2×) and 1.34 mL (2×) and 1.31 mL and 1.33 mL and 1.32 mL and 1.35 mL
Average animal paw volume percent change (CIA rats, 30 mg/kg, Day 12, right hind paw (R)): 2.87%
Animal paw volume Day 12 R (CIA rats, 30 mg/kg, Day 12, right paw, individual animals): 1.50 mL and 1.36 mL and 1.33 mL (4×) and 1.34 mL and 1.35 mL
Average animal paw volume percent change (CIA rats, 30 mg/kg, Day 13, left hind paw (L)): 2.76%
Animal paw volume Day 13 L (CIA rats, 30 mg/kg, Day 13, left paw, individual animals): 1.40 mL and 1.36 mL (2×) and 1.33 mL and 1.34 mL (2×) and 1.38 mL and 1.35 mL
Average animal paw volume percent change (CIA rats, 30 mg/kg, Day 13, right hind paw (R)): 4.15%
Animal paw volume Day 13 R (CIA rats, 30 mg/kg, Day 13, right paw, individual animals): 1.54 mL and 1.38 mL and 1.34 mL (2×) and 1.36 mL (3×) and 1.33 mL
Average animal paw volume percent change (CIA rats, 30 mg/kg, Day 14, left hind paw (L)): 2.39%
Animal paw volume Day 14 L (CIA rats, 30 mg/kg, Day 14, left paw, individual animals): 1.40 mL and 1.35 mL (2×) and 1.32 mL and 1.37 mL (2×) and 1.36 mL and 1.30 mL
Average animal paw volume percent change (CIA rats, 30 mg/kg, Day 14, right hind paw (R)): 3.83%
Animal paw volume Day 14 R (CIA rats, 30 mg/kg, Day 14, right paw, individual animals): 1.53 mL and 1.37 mL and 1.35 mL (2×) and 1.36 mL (3×) and 1.28 mL
Average animal paw volume percent change (CIA rats, 30 mg/kg, Day 15, left hind paw (L)): 10.45%
Animal paw volume Day 15 L (CIA rats, 30 mg/kg, Day 15, left paw, individual animals): 1.46 mL and 1.79 mL and 1.57 mL and 1.38 mL (2×) and 1.34 mL and 1.44 mL and 1.31 mL
Average animal paw volume percent change (CIA rats, 30 mg/kg, Day 15, right hind paw (R)): 12.13%
Animal paw volume Day 15 R (CIA rats, 30 mg/kg, Day 15, right paw, individual animals): 1.52 mL and 1.37 mL and 1.68 mL and 1.38 mL and 1.49 mL and 1.36 mL and 1.73 mL and 1.30 mL
Average animal paw volume percent change (CIA rats, 30 mg/kg, Day 18, left hind paw (L)): 29.38%
Animal paw volume Day 18 L (CIA rats, 30 mg/kg, Day 18, left paw, individual animals): 1.46 mL and 2.05 mL and 1.90 mL and 1.47 mL (2×) and 1.68 mL and 1.93 mL and 1.70 mL
Average animal paw volume percent change (CIA rats, 30 mg/kg, Day 18, right hind paw (R)): 23.54%
Animal paw volume Day 18 R (CIA rats, 30 mg/kg, Day 18, right paw, individual animals): 1.51 mL and 1.87 mL and 1.86 mL and 1.37 mL and 1.48 mL and 1.32 mL and 1.95 mL and 1.68 mL
Average animal paw volume percent change (CIA rats, 30 mg/kg, Day 19, left hind paw (L)): 33.52%
Animal paw volume Day 19 L (CIA rats, 30 mg/kg, Day 19, left paw, individual animals): 1.42 mL and 2.04 mL and 2.06 mL and 1.56 mL and 1.55 mL and 1.85 mL and 1.94 mL and 1.67 mL
Average animal paw volume percent change (CIA rats, 30 mg/kg, Day 19, right hind paw (R)): 32.36%
Animal paw volume Day 19 R (CIA rats, 30 mg/kg, Day 19, right paw, individual animals): 1.44 mL and 1.96 mL and 2.14 mL and 1.39 mL and 1.48 mL and 1.83 mL and 2.04 mL and 1.69 mL
Average animal paw volume percent change (CIA rats, 30 mg/kg, Day 21, left hind paw (L)): 37.92%
Animal paw volume Day 21 L (CIA rats, 30 mg/kg, Day 21, left paw, individual animals): 1.43 mL and 2.08 mL and 2.11 mL and 1.54 mL (2×) and 2.06 mL and 2.13 mL and 1.67 mL
Average animal paw volume percent change (CIA rats, 30 mg/kg, Day 21, right hind paw (R)): 36.08%
Animal paw volume Day 21 R (CIA rats, 30 mg/kg, Day 21, right paw, individual animals): 1.43 mL and 2.10 mL and 2.16 mL and 1.40 mL and 1.47 mL and 2.00 mL and 2.12 mL and 1.67 mL
overall effect on joint inflammation and clinical symptoms of CIA (CIA rats, 3, 10 and 30 mg/kg twice daily P.O. (groups 5-7)): ameliorated joint inflammation in a dose-dependent manner; also recorded: lower clinical scores; also recorded: dose-dependent effect in the amelioration of clinical symptoms associated with CIA; also recorded: function in a dose-dependent manner to limit and/or reduce the severity of CIA-related symptoms
Mean animal paw volume ± SD (Day 0, L paw, 3 mg/kg): 1.33 mL
Mean animal paw volume ± SD (Day 0, L paw, 10 mg/kg): 1.31 mL
Mean animal paw volume ± SD (Day 0, L paw, 30 mg/kg): 1.32 mL
Mean animal paw volume ± SD (Day 0, R paw, 3 mg/kg): 1.33 mL
Mean animal paw volume ± SD (Day 0, R paw, 10 mg/kg): 1.31 mL
Mean animal paw volume ± SD (Day 0, R paw, 30 mg/kg): 1.32 mL
Average detailed clinical score, left forelimb (CIA rats, 3 mg/kg): 0.00
Average detailed clinical score, left hind limb (CIA rats, 3 mg/kg): 0.00
Average detailed clinical score, right forelimb (CIA rats, 3 mg/kg): 0.00
Average detailed clinical score, right hind limb (CIA rats, 3 mg/kg): 0.00
Average detailed clinical score, score (CIA rats, 3 mg/kg): 0.00
Mean overall clinical score ± SD (CIA rats, 3 mg/kg): 0 ± 0
Overall clinical score (CIA rats, 3 mg/kg): 0
Average detailed clinical score, left forelimb (CIA rats, 10 mg/kg): 0.00
Average detailed clinical score, left hind limb (CIA rats, 10 mg/kg): 0.00
Average detailed clinical score, right forelimb (CIA rats, 10 mg/kg): 0.00
Average detailed clinical score, right hind limb (CIA rats, 10 mg/kg): 0.00
Average detailed clinical score, score (CIA rats, 10 mg/kg): 0.00
Mean overall clinical score ± SD (CIA rats, 10 mg/kg): 0 ± 0
Overall clinical score (CIA rats, 10 mg/kg): 0
Average detailed clinical score, left forelimb (CIA rats, 30 mg/kg): 0.00
Average detailed clinical score, left hind limb (CIA rats, 30 mg/kg): 0.00
Average detailed clinical score, right forelimb (CIA rats, 30 mg/kg): 0.00
